Biological target: T1, GSK-3beta (Homo sapiens, UniProt P49841)
T1 construct: purchased Invitrogen
Assay: Z'-LYTE kinase assay (FRET, SER/THR 9 peptide)
Assay type: biochemical
Conditions: 0.04 ng/micro-l GSK-3beta (Invitrogen), 2 micro-M SER/THR 9 peptide, 15 micro-M ATP, 1 hour at room temperature, 1% DMSO
Experimental: The Z′-LYTE kinase assay kit employs a fluorescence resonance energy transfer (FRET) between two fluorophores, coumarin and fluorescein, attached to each end of a substrate peptide.
For 0% phosphorylation control, ATP was omitted from the reaction mixture. For 100% phosphorylation control, SER/THR 9 phosphopeptide was used in place of the SER/THR 9 peptide. Following 1 hour incubation at room temperature, the reaction was stopped by the addition of half assay volume of development solution and further incubated for 1 hour at room temperature. […] The extent of phosphorylation was determined according to the 0% and 100% phosphorylation control samples using the following equation: […]
IC50 values were calculated by nonlinear four parameter fit using SigmaPlot, version 10.0 (Systat Software, Inc.).

T1 sequence (P49841 whole entry): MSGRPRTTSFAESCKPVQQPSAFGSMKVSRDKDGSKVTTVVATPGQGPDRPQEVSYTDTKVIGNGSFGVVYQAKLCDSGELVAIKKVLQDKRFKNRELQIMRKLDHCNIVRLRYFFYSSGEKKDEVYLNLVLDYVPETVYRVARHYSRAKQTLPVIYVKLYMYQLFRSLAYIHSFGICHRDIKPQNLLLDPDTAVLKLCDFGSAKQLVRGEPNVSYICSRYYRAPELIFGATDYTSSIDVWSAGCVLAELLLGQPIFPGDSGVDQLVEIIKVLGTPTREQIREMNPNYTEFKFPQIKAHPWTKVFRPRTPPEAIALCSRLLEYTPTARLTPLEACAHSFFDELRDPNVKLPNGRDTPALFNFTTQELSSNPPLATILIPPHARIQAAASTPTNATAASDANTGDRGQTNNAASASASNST

Row | IC50 | SMILES
1 | 160 nM | O=C(NC[C@H]1CCCNC1)c1ccc(O)c2[nH]c(Cc3cccs3)nc12 [Example 60, (S)-7-hydroxy-N-(piperidin-3-ylmethyl)-2-(thiophen-2-ylmethyl)-1H-benzo[d]imidazole-4-carboxamide]
2 | 12 nM | O=C(NC1CCC(C(=O)O)CC1)c1ccc(O)c2[nH]c(-c3cccs3)nc12 (centres unmarked) [Example 72, 4-[7-hydroxy-2-(thiophen-2-yl)-1H-benzo[d]imidazole-4-carboxamido]cyclohexanecarboxylic Acid]

— patent US20110301146A1 (ONCOTHERAPY SCIENCE, INC., priority 2008, published 2011)
